This is an account of results in ChEMBL document CHEMBL4265872, “Around the macrolide - Impact of 3D structure of macrocycles on lipophilicity and cellular accumulation” (Eur J Med Chem, 2017).

SMILES strings stand for the structures.

Series [1] can be described thus: Chromatographic hydrophobicity, logD of the compound at pH 7.4 by fast-gradient RP-HPLC method. Type of series: physicochemical. The settings on record: buffer.
The nature of series [2]: Drug accumulation in human NCI-H292 cells at 3 to 10 uM incubated for 3 hrs by LC-MS analysis relative to azithromycin. It is filed as ADME, cell-based. The settings on record: nci-h292, 3 h.

As to `CCC(=O)NCCCO[C@H]1[C@H](O[C@@H]2[C@@H](C)[C@H](O[C@H]3C[C@@](C)(OC)[C@@H](O)[C@H](C)O3)[C@@H](C)C(=O)O[C@H](CC)[C@@](C)(O)[C@H](O)[C@@H](C)N(C)C[C@H](C)C[C@@]2(C)O)O[C@H](C)C[C@@H]1N(C)C`, in series [1], the chromatographic logD amounted to 2.7. The same compound showed a Drug uptake in series [2] of 41%.
